Where only a bound is given, the exact number is not on record here.

The test system of the first assay is Jurkat (FADD−/−) cells. The assay can be described thus: Inhibition of TNF-induced programmed Jurkat (FADD−/−) cell necrosis (Cell Titer-Glo). Format: cell-based, human. The settings on record: Homo sapiens, Jurkat, 20 h, TNF 10 ng/mL, intracellular ATP level, read-out: Cellular IC50 (M) Jurkat (FADD−/−). The protocol: Two replicate wells were set for each concentration of each compound.
Jurkat (FADD^−/−) cells (human-derived peripheral blood leukemia T cell line, with FADD gene knocked out) were cultured in vitro. After growing to logarithmic growth phase, the cells were harvested, and centrifuged at 1000 rpm for 5 min. The supernatant was discarded, and the cells were resuspended in fresh medium and adjusted to a cell density of 5×10^5/mL. The cell suspension was added to the culture plate containing the drug (40 μL per well). In the treatment groups, 10 μL of TNF (tumor necrosis factor, final concentration 10 ng/mL) diluted with the cell culture medium was added to each well, and incubated for 20 h in a cell incubator (37° C., 5% CO2). Subsequently, 50 μL of Cell Titer-Glo solution was added to each well and incubated at room temperature for 10 min. Then, the luminescence was detected on BioTek plate reader to measure the intracellular ATP level. The effect of the test compounds in inhibiting TNF-induced cell necrosis was calculated from the full-activity well and background well (with the untreated DMSO control well as 100% cell viability), and the half inhibitory concentration (IC50) of the compound was calculated by Graphpad Prism statistical software.
Turning to `CN1C(=O)[C@@H](NC(=O)c2cnn(Cc3ccccc3)c2)CSc2cc3c(ccn3Cc3ccccc3)cc21` [RIP1-083], the IC50 was above 2e-06 M.
Still for that read-out and setting: with `CN1C(=O)[C@@H](NC(=O)c2cn(Cc3ccccc3)nn2)CSc2cc3c(ccn3Cc3ccccc3)cc21` [RIP1-084] the figure was above 2e-06 M; with `CN1C(=O)[C@@H](NC(=O)c2cc(Cc3ccccc3)on2)CSc2cc3c(ccn3Cc3ccccc3)cc21` [RIP1-085], above 2e-06 M; with `CN1C(=O)[C@@H](NC(=O)c2ncn(Cc3ccccc3)n2)CSc2cc3c(ccn3Cc3ccccc3)cc21` [RIP1-086], above 2e-06 M.
Same read-out and setting: the result for `CN1C(=O)[C@@H](NC(=O)c2cnc(Cc3ccccc3)o2)CSc2cc3c(ccn3Cc3ccccc3)cc21` [RIP1-087] reads above 2e-06 M.
On the same count and under the same terms, the result for `CN1C(=O)[C@@H](NC(=O)c2cn(Cc3ccccc3)cn2)CSc2cc3c(ccn3Cc3ccccc3)cc21` [RIP1-088] reads above 2e-06 M; that for `CN1C(=O)[C@@H](NC(=O)c2nnc(Cc3ccccc3)[nH]2)CSc2ccc3ncccc3c21` [RIP1-092], 1.05e-09 M.
As for `CN1C(=O)[C@@H](NC(=O)c2ncn(Cc3ccccc3)n2)CSc2ccc3ncccc3c21` [RIP1-093], the IC50 was found to be 1.15e-09 M.
Same read-out and setting: with `CN1C(=O)[C@@H](NC(=O)c2cn(Cc3ccccc3)cn2)CSc2ccc3ncccc3c21` [RIP1-094] the figure was 2e-09 M; with `CN1C(=O)[C@@H](NC(=O)c2cn(Cc3ccccc3)nn2)CSc2ccc3ncccc3c21` [RIP1-095], 9.85e-09 M.
On the same count and under the same terms, the result for `CN1C(=O)[C@@H](NC(=O)c2cc(Cc3ccccc3)on2)CSc2ccc3ncccc3c21` [RIP1-096] reads 1.38e-09 M; that for `CN1C(=O)[C@@H](NC(=O)c2nnc(Cc3ccccc3)[nH]2)CSc2ccc3cnccc3c21` [RIP1-102], 9e-10 M.
On the same count and under the same terms, with `CN1C(=O)[C@@H](NC(=O)c2ncn(Cc3ccccc3)n2)CSc2ccc3cnccc3c21` [RIP1-103] the figure was 6.75e-09 M; with `CN1C(=O)[C@@H](NC(=O)c2cn(Cc3ccccc3)cn2)CSc2ccc3cnccc3c21` [RIP1-104], 7.4e-10 M.
For the molecule `CN1C(=O)[C@@H](NC(=O)c2cn(Cc3ccccc3)nn2)CSc2ccc3cnccc3c21` [RIP1-105], the IC50 came out at 3.22e-09 M.
The same measure, in the same setting: the result for `CN1C(=O)[C@@H](NC(=O)c2cc(Cc3ccccc3)on2)CSc2ccc3cnccc3c21` [RIP1-106] reads 7.47e-10 M; that for `CN1C(=O)[C@@H](NC(=O)c2nnc(Cc3ccccc3)[nH]2)COc2cc3[nH]ccc3cc21` [RIP1-112], 1.22e-09 M; that for `CN1C(=O)[C@@H](NC(=O)c2ncn(Cc3ccccc3)n2)COc2cc3[nH]ccc3cc21` [RIP1-113], 3.07e-10 M.
Take `CN1C(=O)[C@@H](NC(=O)c2cn(Cc3ccccc3)cn2)COc2cc3[nH]ccc3cc21` [RIP1-114]: the IC50 stood at 8.46e-10 M.
Still for that read-out and setting: with `CN1C(=O)[C@@H](NC(=O)c2cn(Cc3ccccc3)nn2)COc2cc3[nH]ccc3cc21` [RIP1-115] the figure was 3.48e-09 M; with `CN1C(=O)[C@@H](NC(=O)c2cc(Cc3ccccc3)on2)COc2cc3[nH]ccc3cc21` [RIP1-116], 5.16e-09 M; with `Cc1ccc(Cc2cc(C(=O)N[C@H]3COc4cc5occc5cc4N(C)C3=O)nn2C)cc1` [RIP1-124], 2.09e-08 M.
On the same count and under the same terms, the result for `CN1C(=O)[C@@H](NC(=O)c2ncn(Cc3ccccc3)n2)COc2cc3nccnc3cc21` [RIP1-128] reads 4.83e-07 M.
For the molecule `CN1C(=O)[C@@H](NC(=O)c2cn(Cc3ccccc3)cn2)COc2cc3nccnc3cc21` [RIP1-129], the IC50 amounted to 7.94e-07 M.
The same measure, in the same setting: with `CN1C(=O)[C@@H](NC(=O)c2cn(Cc3ccccc3)nn2)COc2cc3nccnc3cc21` [RIP1-130] the figure was 5.43e-08 M; with `Cc1ccc(Cc2cc(C(=O)N[C@H]3COc4cc5[nH]nnc5cc4N(C)C3=O)nn2C)cc1` [RIP1-141], 2.19e-08 M.
As to `CN1C(=O)[C@@H](NC(=O)c2nnc(Cc3ccccc3)[nH]2)COc2cc3[nH]nnc3cc21` [RIP1-143], the IC50 turned out to be 2.06e-07 M.
Still for that read-out and setting: the result for `CN1C(=O)[C@@H](NC(=O)c2n[nH]c(Cc3ccccc3)n2)COc2ccc3cccnc3c21` [RIP1-148] reads 1.07e-08 M.
On the same count and under the same terms, the result for `O=C(N[C@H]1COc2ccc3cccnc3c2NC1=O)c1n[nH]c(Cc2ccccc2)n1` [RIP1-149] reads above 2e-06 M; that for `COc1ncnc2cc3c(cc12)N(C)C(=O)[C@@H](NC(=O)c1n[nH]c(Cc2c(F)cccc2F)n1)CO3` [RIP1-156], 2.8e-08 M.
On the same count and under the same terms, with `COc1ncnc2cc3c(cc12)N(C)C(=O)[C@@H](NC(=O)c1n[nH]c(Cc2c(F)cc(F)cc2F)n1)CO3` [RIP1-157] the figure was 2.49e-07 M; with `COc1ncnc2cc3c(cc12)N(C)C(=O)[C@@H](NC(=O)c1n[nH]c(Cc2ccc(F)cc2)n1)CO3` [RIP1-158], 8e-09 M; with `COc1ncnc2cc3c(cc12)N(C)C(=O)[C@@H](NC(=O)c1n[nH]c(Cc2cccc(F)c2)n1)CO3` [RIP1-159], 8.7e-09 M.
`COc1ncnc2cc3c(cc12)N(C)C(=O)[C@@H](NC(=O)c1n[nH]c(Cc2ccccc2F)n1)CO3` [RIP1-160]: the IC50 stood at 2.2e-09 M.
Still for that read-out and setting: the result for `CN1C(=O)[C@@H](NC(=O)c2n[nH]c(Cc3c(F)cccc3F)n2)COc2ccc3cnccc3c21` [RIP1-161] reads 8.6e-09 M; that for `CN1C(=O)[C@@H](NC(=O)c2n[nH]c(Cc3c(F)cc(F)cc3F)n2)COc2ccc3cnccc3c21` [RIP1-162], 5.4e-08 M; that for `CN1C(=O)[C@@H](NC(=O)c2n[nH]c(Cc3ccccc3F)n2)COc2ccc3cnccc3c21` [RIP1-163], 1.3e-09 M.
Same read-out and setting: with `CN1C(=O)[C@@H](NC(=O)c2n[nH]c(Cc3ccc(F)cc3)n2)COc2ccc3cnccc3c21` [RIP1-164] the figure was 3.3e-09 M; with `CN1C(=O)[C@@H](NC(=O)c2n[nH]c(Cc3cccc(F)c3)n2)COc2ccc3cnccc3c21` [RIP1-165], 2.5e-09 M.
Still for that read-out and setting: with `CN1C(=O)[C@@H](NC(=O)c2n[nH]c(Cc3c(F)cccc3F)n2)COc2cc3[nH]nnc3cc21` [RIP1-166] the figure was 2.98e-07 M.
For the molecule `CN1C(=O)[C@@H](NC(=O)c2n[nH]c(Cc3ccc(F)cc3)n2)COc2cc3[nH]nnc3cc21` [RIP1-167], the IC50 came to 1.6e-06 M.
On the same count and under the same terms, the result for `CN1C(=O)[C@@H](NC(=O)c2n[nH]c(Cc3c(F)cccc3F)n2)COc2ccc3ncccc3c21` [RIP1-168] reads 1.1e-08 M; that for `CN1C(=O)[C@@H](NC(=O)c2n[nH]c(Cc3c(F)cc(F)cc3F)n2)COc2ccc3ncccc3c21` [RIP1-169], 1.13e-07 M; that for `CN1C(=O)[C@@H](NC(=O)c2n[nH]c(Cc3ccccc3F)n2)COc2ccc3ncccc3c21` [RIP1-170], 1.74e-09 M.
The same measure, in the same setting: with `CN1C(=O)[C@@H](NC(=O)c2n[nH]c(Cc3ccc(F)cc3)n2)COc2ccc3ncccc3c21` [RIP1-171] the figure was 1.4e-08 M.
Same read-out and setting: with `CN1C(=O)[C@@H](NC(=O)c2n[nH]c(Cc3cccc(F)c3)n2)COc2ccc3ncccc3c21` [RIP1-172] the figure was 5e-09 M; with `CN1C(=O)[C@@H](NC(=O)c2n[nH]c(Cc3c(F)cc(F)cc3F)n2)COc2cc3occc3cc21` [RIP1-173], 7e-08 M; with `CN1C(=O)[C@@H](NC(=O)c2n[nH]c(Cc3ccc(F)cc3)n2)COc2cc3occc3cc21` [RIP1-174], 1.3e-08 M.
As to `COc1ncnc2cc3c(cc12)N(C)C(=O)[C@@H](NC(=O)c1cc(Oc2ccccc2)ccn1)CO3` [RIP1-175], the IC50 was 1.46e-09 M.
On to `COc1ncnc2cc3c(cc12)N(C)C(=O)[C@@H](NC(=O)c1n[nH]c(Cc2cc(F)cc(F)c2)n1)CO3` [RIP1-176], for which the IC50 is 6.9e-09 M.
On to `CN1C(=O)[C@@H](NC(=O)c2cc(Oc3ccccc3)ccn2)COc2cc3nccnc3cc21` [RIP1-177], for which the IC50 came to 2.03e-09 M.
On to `CN1C(=O)[C@@H](NC(=O)c2cc(Oc3ccccc3)ccn2)COc2ccc3cnccc3c21` [RIP1-178], for which the IC50 is 3.23e-10 M.
On the same count and under the same terms, the result for `CN1C(=O)[C@@H](NC(=O)c2cc(Oc3ccccc3)ccn2)COc2ccc3ncccc3c21` [RIP1-179] reads 6.7e-10 M; that for `CN1C(=O)[C@@H](NC(=O)c2cc(Oc3ccccc3)ccn2)COc2cc3occc3cc21` [RIP1-180], 2.66e-10 M.
Same read-out and setting: the result for `CN1C(=O)[C@@H](NC(=O)c2cc(Oc3ccccc3)ccn2)COc2cc3[nH]nnc3cc21` [RIP1-181] reads 5.92e-10 M; that for `CN1C(=O)[C@@H](NC(=O)c2n[nH]c(Cc3ccccc3)n2)COc2cc3ncoc3cc21` [RIP1-182], 8.16e-10 M.
On the same count and under the same terms, the result for `CN1C(=O)[C@@H](NC(=O)c2n[nH]c(Cc3c(F)cccc3F)n2)COc2cc3ncoc3cc21` [RIP1-183] reads 6.15e-09 M; that for `CN1C(=O)[C@@H](NC(=O)c2n[nH]c(Cc3c(F)cc(F)cc3F)n2)COc2cc3ncoc3cc21` [RIP1-184], 3.76e-08 M.
On to `CN1C(=O)[C@@H](NC(=O)c2n[nH]c(Cc3ccc(F)cc3)n2)COc2cc3ncoc3cc21` [RIP1-185], for which the IC50 amounted to 2.72e-09 M.
On the same count and under the same terms, the result for `CN1C(=O)[C@@H](NC(=O)c2cc(Oc3ccccc3)ccn2)COc2cc3ncoc3cc21` [RIP1-186] reads 7.52e-10 M; that for `CN1C(=O)[C@@H](NC(=O)c2n[nH]c(Cc3ccccc3)n2)COc2cc3ncnc(O)c3cc21` [RIP1-187], 2.59e-07 M.
Same read-out and setting: with `CN1C(=O)[C@@H](NC(=O)c2cc(Oc3ccccc3)ccn2)COc2cc3ncnc(O)c3cc21` [RIP1-188] the figure was 1.93e-07 M; with `CN1C(=O)[C@@H](NC(=O)c2cc(Oc3ccccc3)ccn2)COc2cc3[nH]ccc3cc21` [RIP1-189], 1.93e-10 M.

The same assay, now with this note: TNF 10 ng/mL, 20 h, intracellular ATP level; read-out: Cellular IC50 (M) Jurkat (FADD−/−).
Turning to `CN1C(=O)[C@@H](NC(=O)c2n[nH]c(Cc3ccccc3F)n2)COc2ccc3ncccc3c21` [RIP1-170], the IC50 stood at 3e-09 M.

These data come from US20210292340A1, “CELL NECROSIS INHIBITOR, PREPARATION METHOD THEREFOR AND USE THEREOF” (SHANGHAI INSTITUTE OF ORGANIC CHEMISTRY, CHINESE ACADEMY OF …, priority 2018, published 2021).
